US12655116B2, “Substituted isophthalic acid diamides” (Bayer Aktiengesellschaft, priority 2020, dated 2026)

Key:
ABUTH [1] = test: Pre-emergence herbicidal action against ABUTH; assay type: in vivo, Abutilon theophrasti; conditions: for Pre-emergence action against ABUTH (herbicidal activity): 80 g/ha, scored visually after 3 weeks vs untreated controls (100% = plants have died, 0% = like control plants); for Pre-emergence action against ABUTH (herbicidal activity in percent): dosage 20 g/ha, scored visually after 3 weeks vs untreated controls, 100% = plants have died, 0% = like control plants
Method in brief: (§1)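 Visual rating at 3 weeks vs untreated pots; 0–100% scale, 100% = plants died. Treatment: aqueous WP/EC spray onto covering soil, 600–800 l/ha, 0.2% wetter, seeds in sandy loam.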

ALOMY [2] = test: Pre-emergence herbicidal action against ALOMY; assay type: in vivo, Alopecurus myosuroides; conditions: for Pre-emergence action against ALOMY (herbicidal activity): 80 g/ha, scored visually after 3 weeks vs untreated controls (100% = plants have died, 0% = like control plants)
Method in brief: as §1

AMARE [3] = test: Pre-emergence herbicidal action against AMARE; assay type: in vivo, Amaranthus retroflexus
Method in brief: as §1

AVEFA = test: Pre-emergence herbicidal action against AVEFA; assay type: in vivo, Avena fatua; conditions: for Pre-emergence action against AVEFA in %: 80 g/ha
Method in brief: as §1

ECHCG [4] = test: Pre-emergence herbicidal action against ECHCG; assay type: in vivo, Echinochloa crus-galli; conditions: 80 g/ha
Method in brief: as §1

MATIN [5] = test: Pre-emergence herbicidal action against MATIN; assay type: in vivo, Matricaria inodora
Method in brief: as §1

PHBPU [6] = test: Pre-emergence herbicidal action against PHBPU; assay type: in vivo, Pharbitis purpurea; conditions: dosage 80 g/ha
Method in brief: as §1

POLCO = test: Pre-emergence herbicidal action against POLCO; assay type: in vivo, Polygonum convolvulus; conditions: dosage 80 g/ha
Method in brief: as §1

SETVI [7] = test: Pre-emergence herbicidal action against SETVI; assay type: in vivo, Setaria viridis
Method in brief: as §1

VERPE [8] = test: Pre-emergence herbicidal action against VERPE; assay type: in vivo, Veronica persica
Method in brief: as §1

VIOTR [9] = test: Pre-emergence herbicidal action against VIOTR; assay type: in vivo, Viola tricolor
Method in brief: as §1

ABUTH [10] = test: Post-emergence herbicidal action against ABUTH; assay type: in vivo, Abutilon theophrasti; conditions: visual assessment about 3 weeks after treatment vs untreated controls
Method in brief: (§2)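 Weeds in sandy loam soil received a post-emergence spray at the one-leaf stage. Compounds were applied as WP or EC in water, 600 to 800 l/ha, with 0.2% wetting agent. Activity in % was judged visually after roughly 3 weeks against untreated plants.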

ALOMY [11] = test: Post-emergence herbicidal action against ALOMY; assay type: in vivo, Alopecurus myosuroides; conditions: dosage 20 g/ha, visual assessment about 3 weeks after treatment vs untreated controls
Method in brief: as §2

AMARE [12] = test: Post-emergence herbicidal action against AMARE; assay type: in vivo, Amaranthus retroflexus; conditions: 20 g/ha, visual assessment about 3 weeks after treatment, 100% = plants have died, 0% = like control plants
Method in brief: as §2

ECHCG [13] = test: Post-emergence herbicidal action against ECHCG; assay type: in vivo, Echinochloa crus-galli
Method in brief: as §2

MATIN [14] = test: Post-emergence herbicidal action against MATIN; assay type: in vivo, Matricaria inodora; conditions: dosage 20 g/ha
Method in brief: as §2

PHBPU [15] = test: Post-emergence herbicidal action against PHBPU; assay type: in vivo, Pharbitis purpurea; conditions: dosage 20 g/ha
Method in brief: as §2

SETVI [16] = test: Post-emergence herbicidal action against SETVI; assay type: in vivo, Setaria viridis; conditions: dosage 20 g/ha
Method in brief: as §2

VERPE [17] = test: Post-emergence herbicidal action against VERPE; assay type: in vivo, Veronica persica
Method in brief: as §2

VIOTR [18] = test: Post-emergence herbicidal action against VIOTR; assay type: in vivo, Viola tricolor; conditions: 20 g/ha
Method in brief: as §2

DIGSA = test: Pre-emergence herbicidal action against DIGSA; assay type: in vivo, Digitaria sanguinalis
Method in brief: as §1

[19] = 20 g/ha, scored visually after 3 weeks, 100% = plants have died, 0% = like control plants
[20] = 20 g/ha, scored visually after 3 weeks vs untreated controls, 100% = plants have died, 0% = like control plants
[21] = 80 g/ha, scored visually after 3 weeks vs untreated controls (100% = plants have died, 0% = like control plants)

SMILES	Pre-emergence action against ABUTH (herbicidal activity) (ABUTH [1]) [%]	Pre-emergence action against ABUTH (herbicidal activity in percent) (ABUTH [1]) [%]	Pre-emergence action against ALOMY (herbicidal activity) (ALOMY [2]) [%]	Pre-emergence action against AMARE in % (AMARE [3]; [20]) [%]	Pre-emergence action against AMARE in % (AMARE [3]; [21]) [%]	Pre-emergence action against AVEFA in % (AVEFA) [%]	Pre-emergence action against ECHCG in % (ECHCG [4]) [%]	Pre-emergence action against MATIN in % (MATIN [5]; dosage 20 g/ha) [%]	Pre-emergence action against MATIN in % (MATIN [5]; dosage 80 g/ha) [%]	Pre-emergence action against PHBPU in % (PHBPU [6]) [%]	Pre-emergence action against POLCO in % (POLCO) [%]	Pre-emergence action against SETVI in % (SETVI [7]; dosage 80 g/ha) [%]	Pre-emergence action against VERPE in % (VERPE [8]; dosage 80 g/ha) [%]	Pre-emergence action against VIOTR in % (VIOTR [9]; dosage 20 g/ha) [%]	Pre-emergence action against VIOTR in % (VIOTR [9]; dosage 80 g/ha) [%]	Post-emergence action against ABUTH in % (ABUTH [10]; dosage 20 g/ha) [%]	Post-emergence action against ALOMY in % (ALOMY [11]) [%]	Post-emergence action against ECHCG in % (ECHCG [13]; dosage 5 g/ha) [%]	Post-emergence action against ECHCG in % (ECHCG [13]; dosage 20 g/ha) [%]	Post-emergence action against MATIN in % (MATIN [14]) [%]	other results
CCc1c(C(=O)Nc2nnnn2C)ccc(C(F)(F)F)c1C(=O)NC(C)C1CC1 (stereo not drawn) [Example 1-341]	100	100	90	100	100	90	90	100	100	80	80	100	90	100	100	80	80	80	90	80	Pre-emergence action against ALOMY (ALOMY [2]; [19]): 80%; Pre-emergence action against AVEFA (AVEFA; [19]): 80%; Pre-emergence action against SETVI in % (SETVI [7]; dosage 20 g/ha): 80%; Pre-emergence action against VERPE in % (VERPE [8]; dosage 20 g/ha): 80%; Post-emergence action at 20 g/ha against AMARE in % (AMARE [12]): 100%; Post-emergence action against PHBPU in % (PHBPU [15]): 80%; Post-emergence action against SETVI in % (SETVI [16]): 80%; Post-emergence action against VERPE in % (VERPE [17]; 5 g/ha): 80%; Post-emergence action against VERPE in % (VERPE [17]; 20 g/ha): 90%; Post-emergence action against VIOTR in % (VIOTR [18]): 80%
CCn1nnnc1NC(=O)c1ccc(C(F)F)c(C(=O)NC2CC2)c1OC [Example 2-74]	100	100	100	100	100	80	100	100	100	90	80	100	90	100	100	80	80	80	80	80	Pre-emergence action against DIGSA in % (DIGSA; dosage 20 g/ha): 100%; Pre-emergence action against DIGSA in % (DIGSA; dosage 80 g/ha): 100%; Post-emergence action against ABUTH in % (ABUTH [10]; dosage 5 g/ha): 80%; Post-emergence action against PHBPU in % (PHBPU [15]): 80%; Post-emergence action against SETVI in % (SETVI [16]): 90%; Post-emergence action against VERPE in % (VERPE [17]; 20 g/ha): 80%; Post-emergence action against VIOTR in % (VIOTR [18]): 80%
